According to the supplement of paper PMC11451515:

Test system: NOMO1
Experiment: cell viability relative to DMSO control; higher = less cytotoxic
Conditions: 48 h
Summary of the method: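 Three leukemia lines were tested: NOMO1 and SEM at 500 cells/well and P12-Ichikawa at 1000 cells/well. Each was adapted for at least four passages in each medium and seeded in 5 μl in 1536-well plates, and library compounds in DMSO were pin-dosed from 47 μM to 0.79 nM in 11 threefold steps. After 48 h at 37°C, CellTiter-Glo One luminescence was read. Viability is a percentage relative to DMSO wells on each plate, with cell-free wells as background.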

[1] = RPMI 5 mM glucose + 10% FBS, 0.000781 µM
[2] = RPMI 5 mM glucose + 10% FBS, 0.00234 µM
[3] = RPMI 5 mM glucose + 10% FBS, 0.00702 µM
[4] = RPMI 5 mM glucose + 10% FBS, 0.0211 µM
[5] = RPMI 5 mM glucose + 10% FBS, 0.0632 µM
[6] = RPMI 5 mM glucose + 10% FBS, 0.19 µM
[7] = RPMI 5 mM glucose + 10% FBS, 0.569 µM
[8] = RPMI 5 mM glucose + 10% FBS, 1.71 µM
[9] = RPMI 5 mM glucose + 10% FBS, 5.12 µM
[10] = RPMI 5 mM glucose + 10% FBS, 15.4 µM
[11] = RPMI 5 mM glucose + 10% FBS, 46.1 µM
[12] = RPMI 5 mM glucose + 10% dialyzed FBS, 0.000781 µM
[13] = RPMI 5 mM glucose + 10% dialyzed FBS, 0.00234 µM
[14] = RPMI 5 mM glucose + 10% dialyzed FBS, 0.00702 µM
[15] = RPMI 5 mM glucose + 10% dialyzed FBS, 0.0211 µM
[16] = RPMI 5 mM glucose + 10% dialyzed FBS, 0.0632 µM
[17] = RPMI 5 mM glucose + 10% dialyzed FBS, 0.19 µM
[18] = RPMI 5 mM glucose + 10% dialyzed FBS, 0.569 µM
[19] = RPMI 5 mM glucose + 10% dialyzed FBS, 1.71 µM
[20] = RPMI 5 mM glucose + 10% dialyzed FBS, 5.12 µM
[21] = RPMI 5 mM glucose + 10% dialyzed FBS, 15.4 µM
[22] = RPMI 5 mM glucose + 10% dialyzed FBS, 46.1 µM
[23] = HPLM + 10% dialyzed FBS, 0.000781 µM
[24] = HPLM + 10% dialyzed FBS, 0.00234 µM
[25] = HPLM + 10% dialyzed FBS, 0.00702 µM
[26] = HPLM + 10% dialyzed FBS, 0.0211 µM
[27] = HPLM + 10% dialyzed FBS, 0.0632 µM
[28] = HPLM + 10% dialyzed FBS, 0.19 µM
[29] = HPLM + 10% dialyzed FBS, 0.569 µM
[30] = HPLM + 10% dialyzed FBS, 1.71 µM
[31] = HPLM + 10% dialyzed FBS, 5.12 µM
[32] = HPLM + 10% dialyzed FBS, 15.4 µM
[33] = HPLM + 10% dialyzed FBS, 46.1 µM

Structure (SMILES) | cell viability [1] [%] | cell viability [2] [%] | cell viability [3] [%] | cell viability [4] [%] | cell viability [5] [%] | cell viability [6] [%] | cell viability [7] [%] | cell viability [8] [%] | cell viability [9] [%] | cell viability [10] [%] | cell viability [11] [%] | cell viability [12] [%] | cell viability [13] [%] | cell viability [14] [%] | cell viability [15] [%] | cell viability [16] [%] | cell viability [17] [%] | cell viability [18] [%] | cell viability [19] [%] | cell viability [20] [%] | cell viability [21] [%] | cell viability [22] [%] | cell viability [23] [%] | cell viability [24] [%] | cell viability [25] [%] | cell viability [26] [%] | cell viability [27] [%] | cell viability [28] [%] | cell viability [29] [%] | cell viability [30] [%] | cell viability [31] [%] | cell viability [32] [%] | cell viability [33] [%]
CCOC(=O)[C@H]1O[C@@H]1C(=O)N[C@@H](CC(C)C)C(=O)NCCC(C)C | 114 | 107 | 107 | 117 | 123 | 116 | 114 | 104 | 102 | 92.2 | 12.6 | 114 | 112 | 121 | 126 | 106 | 121 | 113 | 109 | 102 | 112 | 15.1 |  |  |  |  |  |  |  |  |  |  | 
CC(C)Cn1cnc2c(N)nc3ccccc3c21 | 98.9 | 110 | 116 | 109 | 114 | 103 | 108 | 103 | 108 | 95.3 | 105 | 112 | 107 | 102 | 128 | 109 | 110 | 115 | 103 | 96 | 98.8 | 100 | 120 | 124 | 120 | 116 | 118 | 121 | 117 | 112 | 94.5 | 102 | 89.4
N#C/C(=C1/Nc2ccccc2S1)c1ccnc(OCc2ccc(CN3CCOCC3)cc2)n1 | 104 | 109 | 105 | 117 | 113 | 115 | 109 | 101 | 103 | 13.4 | 13.7 | 112 | 105 | 96 | 120 | 109 | 114 | 111 | 99 | 86 | 18 | 14.6 | 104 | 120 | 97.1 | 127 | 122 | 122 | 107 | 84.9 | 86 | 25.2 | 27.5
COc1cc2ncnc(Nc3cccc(Cl)c3)c2cc1OC | 95.7 | 101 | 99.3 | 96.6 | 102 | 85.9 | 82.1 | 57.7 | 48.7 | 39.6 | 34.4 | 100 | 95 | 101 | 101 | 76.2 | 75.1 | 72.9 | 47.7 | 45.8 | 38.9 | 37.5 | 83 | 93.2 | 86.9 | 80.6 | 69.7 | 59 | 57 | 41.4 | 39.2 | 36 | 3.63
CC(C)n1cnc2c(NCCc3ccc(O)cc3)nc(-c3csc4ccccc34)nc21 | 115 | 114 | 104 | 113 | 127 | 114 | 119 | 113 | 119 | 57.1 | 24.9 | 114 | 116 | 115 | 121 | 124 | 116 | 125 | 140 | 130 | 57.1 | 29.1 | 108 | 98 | 124 | 99.4 | 121 | 116 | 144 | 139 | 51.1 | 33.8 | 13.4
C[C@H](NCc1ccc(OCc2cccc(F)c2)cc1)C(N)=O | 110 | 109 | 106 | 108 | 106 | 117 | 122 | 111 | 113 | 104 | 50.3 | 110 | 114 | 125 | 110 | 107 | 123 | 111 | 116 | 99.7 | 97.4 | 62.8 | 87.6 | 125 | 121 | 113 | 116 | 116 | 124 | 133 | 97.7 | 95.1 | 18.4
COC(=O)Nc1nc2ccc([S+]([O-])c3ccccc3)cc2[nH]1 (configuration not stated) |  |  |  |  |  |  |  |  |  |  |  | 113 | 123 | 120 | 131 | 136 | 137 | 123 | 134 | 130 | 116 | 94.8 | 96.8 | 106 | 119 | 110 | 101 | 119 | 121 | 113 | 101 | 97.9 | 66.7
Oc1ccc(-c2ccc(-c3cc(Nc4cccc(CNC5CC5)c4)[nH]n3)cc2)c(O)c1 | 104 | 99 | 103 | 97.4 | 115 | 109 | 114 | 96.7 | 49.5 | 27.8 | 30.8 | 99.3 | 94.4 | 106 | 109 | 107 | 102 | 119 | 107 | 71.1 | 26 | 31.1 | 93.9 | 104 | 108 | 116 | 127 | 116 | 102 | 93.4 | 41.4 | 40 | 60.6
